Test systems include MDA-MB-435; BT-549 breast; CCRF-CEM leukemia; NCI-H460 lung; HT29 colon; EKVX NSCLC; SF-295 CNS; HOP-92 NSCLC; 786-0 renal; RXF 393 renal.
Common to all, as to experiment: inhibition of tumour cell growth, NCI panel, 48 h

“And” between values parts separate entries of the source, which are not always exact repeats. Equal values may be shown once.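 Five concentrations, 48 hours, 96-well plates. At the GI50, growth is halved. TGI: total growth inhibition.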 Bounds are passed on as bounds.

Take `C=C1CCC2C3(C)COC(c4ccc(NC(C)=O)cc4)OC3CCC2(C)C1C/C=C1/C(=O)OCC1O` (stereo not drawn): the GI50 in the assay with MDA-MB-435 is 8800 nM; in the assay on BT-549 breast, 1860 nM; in the assay with CCRF-CEM leukemia, 3.08 µM; with NCI-H460 lung, 4.71 µM; in the assay on HT29 colon, 5350 nM; in the assay with EKVX NSCLC it was 2710 nM. For the same molecule, the GI50 with SF-295 CNS was 1550 nM; in the assay on HOP-92 NSCLC, 3.83 µM; in the assay with 786-0 renal, greater than 100000 nM; with RXF 393 renal, 46900 nM. The TGI in the assay on MDA-MB-435 is greater than 100 µM; in the assay on BT-549 breast it was 9.35 µM; with CCRF-CEM leukemia, greater than 100 µM; in the assay on NCI-H460 lung, greater than 100 µM; with HT29 colon it was greater than 100 µM; in the assay with EKVX NSCLC, greater than 100 µM. Further, the TGI in the assay with SF-295 CNS was 6.75 µM; with HOP-92 NSCLC, greater than 100 µM; in the assay with 786-0 renal, greater than 100 µM; in the assay with RXF 393 renal, greater than 100000 nM.

In the case of `COc1ccc(/C(C)=C(\c2ccc(Cl)cc2)c2ccc(OCCN3CCCC3)cc2)cc1`, the GI50 in the assay with MDA-MB-435 is 1840 nM; with BT-549 breast it was 3820 nM; in the assay with CCRF-CEM leukemia, 3.79 µM; with NCI-H460 lung, 3.36 µM; in the assay with HT29 colon, 1150 nM; with EKVX NSCLC, 2970 nM. The GI50 with SF-295 CNS is 3230 nM; in the assay on HOP-92 NSCLC it was 4.17 µM; in the assay on 786-0 renal it was 2430 nM; in the assay with RXF 393 renal, 3390 nM. The TGI is 6.14 µM in the assay on MDA-MB-435; 8.09 µM in the assay with BT-549 breast; 11.4 µM with CCRF-CEM leukemia; 7.46 µM with NCI-H460 lung; 4.08 µM with HT29 colon; 7.3 µM with EKVX NSCLC. Besides, the TGI with SF-295 CNS amounted to 7.25 µM; with HOP-92 NSCLC it was 8.7 µM; with 786-0 renal, 6.85 µM; with RXF 393 renal it was 7930 nM.

As for `CC(C)C[C@H](NC(=O)[C@H](CCc1ccccc1)NC(=O)CN1CCOCC1)C(=O)N[C@@H](Cc1ccccc1)C(=O)N[C@@H](CC(C)C)C(=O)[C@@]1(C)CO1`, the GI50 is less than 10 nM with MDA-MB-435; less than 10 nM with BT-549 breast; less than 0.01 µM with CCRF-CEM leukemia; 0.0235 µM in the assay with NCI-H460 lung; less than 10 nM in the assay with HT29 colon; 56.6 nM with EKVX NSCLC. The GI50 in the assay on SF-295 CNS is less than 10 nM; in the assay with HOP-92 NSCLC, 0.0236 µM; in the assay with 786-0 renal, 31.1 nM; with RXF 393 renal, less than 14 nM. For the same molecule, the TGI was 0.0173 µM with MDA-MB-435; 0.0242 µM in the assay on BT-549 breast; greater than 100 µM with CCRF-CEM leukemia; 0.153 µM with NCI-H460 lung; 0.0471 µM in the assay on HT29 colon; 0.0561 µM in the assay on SF-295 CNS. Further, the figures for the TGI with HOP-92 NSCLC, in the assay with 786-0 renal and with RXF 393 renal were 0.0812 µM, 0.332 µM and 24.6 nM, respectively.

As for `C#CCN1C(=O)/C(=c2\sc3n(c2=O)C2C(NN=3)N(CC)C(=O)N2CC)c2ccccc21` (stereo not drawn), the GI50 is 214 nM with MDA-MB-435; 568 nM in the assay with BT-549 breast; 0.381 µM in the assay on CCRF-CEM leukemia; 0.439 µM with NCI-H460 lung; 387 nM in the assay with HT29 colon; 1800 nM in the assay on EKVX NSCLC. Besides, the GI50 in the assay with SF-295 CNS is 529 nM; in the assay on HOP-92 NSCLC, 1.55 µM; in the assay on 786-0 renal it was 669 nM; with RXF 393 renal, 354 nM. For the same molecule, the TGI is 0.507 µM in the assay with MDA-MB-435; 12.4 µM in the assay on BT-549 breast; greater than 100 µM in the assay on CCRF-CEM leukemia; greater than 100 µM in the assay on NCI-H460 lung; greater than 100 µM with HT29 colon; greater than 100 µM in the assay with EKVX NSCLC. The TGI in the assay with SF-295 CNS is 8.83 µM; in the assay on HOP-92 NSCLC, 78.7 µM; in the assay with 786-0 renal it was 22.5 µM; with RXF 393 renal it was 2280 nM.

Consider `O=C(/C=C/c1ccc(C(F)(F)F)cc1)c1ccc(Nc2nc(NCCO)nc(NCCO)n2)cc1`, for which the GI50 in the assay with MDA-MB-435 is 3820 nM; with BT-549 breast, 2530 nM; in the assay with CCRF-CEM leukemia, 3.24 µM; in the assay on NCI-H460 lung it was 3.23 µM; in the assay on HT29 colon it was 2500 nM; in the assay on EKVX NSCLC it was 3490 nM. Also, the GI50 with SF-295 CNS is 3200 nM; in the assay with HOP-92 NSCLC, 5.28 µM; with 786-0 renal, 3120 nM; in the assay with RXF 393 renal, 1600 nM. Further, the TGI in the assay on MDA-MB-435 was 14.2 µM; with BT-549 breast, 8 µM; with CCRF-CEM leukemia, 10.7 µM; in the assay with NCI-H460 lung, 10.6 µM; with HT29 colon, 6.91 µM; with EKVX NSCLC it was 16.8 µM. Besides, the TGI in the assay with SF-295 CNS is 13 µM; with HOP-92 NSCLC, 25 µM; with 786-0 renal, 10.9 µM; with RXF 393 renal, 3440 nM.

On to `NC(=O)CCC(NC(=O)OCc1ccccc1)C(=O)OCC(=O)c1ccccc1` (stereo not drawn), for which the GI50 in the assay on MDA-MB-435 was greater than 100000 nM; in the assay with BT-549 breast, greater than 100000 nM; in the assay with CCRF-CEM leukemia, greater than 100 µM; in the assay with NCI-H460 lung it was greater than 100 µM; with HT29 colon, greater than 100000 nM; with EKVX NSCLC, greater than 100000 nM. Further, the GI50 in the assay on SF-295 CNS was greater than 100000 nM; with HOP-92 NSCLC it was greater than 100 µM; with 786-0 renal, greater than 100000 nM; in the assay with RXF 393 renal, greater than 100000 nM. In addition, the TGI in the assay on MDA-MB-435, with BT-549 breast, with CCRF-CEM leukemia, in the assay with NCI-H460 lung, in the assay with HT29 colon and with EKVX NSCLC was greater than 100 µM throughout. In addition, the TGI in the assay with SF-295 CNS was greater than 100 µM; in the assay with HOP-92 NSCLC, greater than 100 µM; in the assay with 786-0 renal it was greater than 100 µM; in the assay with RXF 393 renal, greater than 100000 nM.

In the case of `C/C1=C\[C@H](C)C[C@H](C)OC(=O)C[C@H](c2ccc(O)cc2)NC(=O)[C@@H](Cc2c(Br)[nH]c3ccccc23)N(C)C(=O)[C@H](C)NC(=O)[C@@H](C)C1`, the GI50 in the assay on MDA-MB-435 was 44.5 nM; in the assay on CCRF-CEM leukemia it was 0.114 µM; in the assay on NCI-H460 lung it was 0.0126 µM; in the assay on HT29 colon, 21.6 nM; in the assay with EKVX NSCLC, 132 nM; in the assay on SF-295 CNS, 34.9 nM. The GI50 in the assay on HOP-92 NSCLC was 0.0304 µM; with 786-0 renal it was 27.5 nM; in the assay with RXF 393 renal, 228 nM. The TGI was 17.7 µM with MDA-MB-435; 0.0669 µM in the assay with BT-549 breast; greater than 23.7 µM in the assay with CCRF-CEM leukemia; 23.6 µM with NCI-H460 lung; 0.897 µM and 8.94 µM in the assay on HT29 colon; 0.746 µM and 1.83 µM in the assay with EKVX NSCLC. Besides, the TGI with SF-295 CNS is 0.699 µM and 0.18 µM; in the assay on HOP-92 NSCLC, 0.532 µM and 0.535 µM; in the assay with 786-0 renal, 0.384 µM and 0.255 µM; in the assay on RXF 393 renal, 464 nM and 615 nM.

These data come from PubChem BioAssay (NCI).
